In ChEMBL document CHEMBL3046720, “Molecular properties of fatty acids related to PPAR binding and metabolic diseases” (Med Chem Res, 2013):

How the values were obtained:
[1] = target: T1, Peroxisome proliferator-activated receptor delta (Homo sapiens, UniProt Q03181); assay: Displacement of [3H]GW2433 from Homo sapiens (human) PPARdelta receptor by scintillation proximity assay
T1 sequence (Q03181 whole entry): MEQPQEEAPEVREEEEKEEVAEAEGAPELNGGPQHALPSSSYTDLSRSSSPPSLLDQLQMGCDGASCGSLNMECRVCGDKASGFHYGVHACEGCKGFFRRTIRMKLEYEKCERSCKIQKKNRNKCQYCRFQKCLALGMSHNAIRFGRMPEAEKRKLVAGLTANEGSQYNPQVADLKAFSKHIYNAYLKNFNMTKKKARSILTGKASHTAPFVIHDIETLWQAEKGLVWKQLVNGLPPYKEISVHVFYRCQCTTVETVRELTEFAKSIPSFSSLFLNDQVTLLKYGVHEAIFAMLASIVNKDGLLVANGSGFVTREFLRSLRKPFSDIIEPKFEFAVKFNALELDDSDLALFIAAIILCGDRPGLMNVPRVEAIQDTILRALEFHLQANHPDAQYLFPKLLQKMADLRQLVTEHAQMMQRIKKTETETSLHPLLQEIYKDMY

[2] = target: T2, Peroxisome proliferator-activated receptor alpha (Homo sapiens, UniProt Q07869); assay: Displacement of [3H]GW2331 from Homo sapiens (human) PPARalpha receptor by scintillation proximity assay
T2 sequence (Q07869 whole entry): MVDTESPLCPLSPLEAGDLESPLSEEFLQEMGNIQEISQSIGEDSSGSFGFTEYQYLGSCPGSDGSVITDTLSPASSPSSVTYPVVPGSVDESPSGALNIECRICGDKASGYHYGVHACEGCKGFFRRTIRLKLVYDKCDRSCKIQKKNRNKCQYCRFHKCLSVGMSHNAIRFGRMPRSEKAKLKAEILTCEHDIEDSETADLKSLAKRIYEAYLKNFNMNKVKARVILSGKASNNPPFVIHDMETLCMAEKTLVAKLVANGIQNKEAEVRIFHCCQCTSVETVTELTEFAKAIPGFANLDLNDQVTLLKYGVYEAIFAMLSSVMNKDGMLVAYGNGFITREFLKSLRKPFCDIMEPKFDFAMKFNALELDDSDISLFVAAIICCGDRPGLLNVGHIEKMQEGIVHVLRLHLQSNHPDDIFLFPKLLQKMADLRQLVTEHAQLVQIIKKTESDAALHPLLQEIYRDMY

[3] = target: T3, Peroxisome proliferator-activated receptor gamma (Homo sapiens, UniProt P37231); assay: Displacement of [3H]BRL49653 from Homo sapiens (human) PPARgamma receptor by scintillation proximity assay
T3 sequence (P37231 whole entry): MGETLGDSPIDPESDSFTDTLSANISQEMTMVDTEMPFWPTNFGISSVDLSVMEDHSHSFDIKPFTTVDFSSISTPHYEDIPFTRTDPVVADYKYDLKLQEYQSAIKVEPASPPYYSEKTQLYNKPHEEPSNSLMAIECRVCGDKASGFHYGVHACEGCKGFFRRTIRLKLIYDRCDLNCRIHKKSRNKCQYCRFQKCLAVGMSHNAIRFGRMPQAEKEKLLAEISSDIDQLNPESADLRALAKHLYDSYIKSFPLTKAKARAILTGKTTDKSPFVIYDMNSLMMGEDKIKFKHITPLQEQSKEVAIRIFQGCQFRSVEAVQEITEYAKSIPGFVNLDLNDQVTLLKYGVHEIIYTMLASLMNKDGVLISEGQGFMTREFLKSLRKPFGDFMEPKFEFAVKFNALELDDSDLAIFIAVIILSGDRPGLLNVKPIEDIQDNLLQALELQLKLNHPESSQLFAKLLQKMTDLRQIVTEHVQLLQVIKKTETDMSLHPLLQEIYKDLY

Compound: CCCCCCCCCCCCCCCCCCCC(=O)O [ARACHIDIC ACID]
- IC50 [1]: > 30 µM
- IC50 [2]: > 30 µM

Compound: CCCCC/C=C\C/C=C\C/C=C\C/C=C\CCCC(=O)O [ARACHIDONIC ACID]
- IC50 [3]: 1.6 µM
- IC50 [1]: 3.1 µM

Compound: CCCCCCCCCCCCCCCCCCCCCC(=O)O [BEHENIC ACID]
- IC50 [1]: > 30 µM
- IC50 [2]: > 30 µM

Compound: CCCCCCCCCC(=O)O [DECANOIC ACID]
- IC50 [3]: 30 µM
- IC50 [1]: > 30 µM
- IC50 [2]: > 30 µM

Compound: CCCCC/C=C\C/C=C\C/C=C\CCCCCCC(=O)O [DIHOMO-GAMMA-LINOLENIC ACID]
- IC50 [3]: 2.4 µM
- IC50 [1]: 4.3 µM

Compound: CCCCCCCCCCCC(=O)O [DODECANOATE]
- IC50 [1]: > 30 µM
- IC50 [2]: > 30 µM

Compound: CCCCCCCC/C=C\CCCCCCCCCCCC(=O)O [ERUCIC ACID]
- IC50 [1]: > 30 µM
- IC50 [2]: > 30 µM

Compound: CCCCC/C=C\C/C=C\C/C=C\CCCCC(=O)O [GAMOLENIC ACID]
- IC50 [1]: 0.75 µM

Compound: CC/C=C\C/C=C\C/C=C\C/C=C\C/C=C\CCCC(=O)O [ICOSAPENT]
- IC50 [3]: 1.6 µM
- IC50 [1]: 4 µM

Compound: CCCCC/C=C\C/C=C\CCCCCCCC(=O)O [LINOLEIC ACID]
- IC50 [3]: 6.2 µM
- IC50 [1]: 10 µM

Compound: CC/C=C\C/C=C\C/C=C\CCCCCCCC(=O)O [LINOLENIC ACID]
- IC50 [1]: 16 µM

Compound: CCCCCCCCCCCCCC(=O)O [MYRISTIC ACID]
- IC50 [3]: 21 µM
- IC50 [2]: 5.4 µM

Compound: CCCCCCCC/C=C\CCCCCCCC(=O)O [OLEIC ACID]
- IC50 [3]: 4.1 µM
- IC50 [1]: 5.3 µM

Compound: CCCCCCCCCCCCCCCC(=O)O [PALMITIC ACID]
- IC50 [2]: 1.5 µM

Compound: CCCCCC/C=C\CCCCCCCC(=O)O [PALMITOLEIC ACID]
- IC50 [3]: 6.4 µM
- IC50 [1]: 9.6 µM

Compound: CCCCCCCCCCCCCCCCCC(=O)O [STEARIC ACID]
- IC50 [2]: 1.1 µM
